Experimental data published in PubChem BioAssay (NCI).
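Test compounds were applied to cells in 96-well plates for 48 hours at 5 doses. TGI: total growth inhibition.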

Experiments:
Assay in all cases: NCI anticancer screen, dose series, 48 h
SK-MEL-2 melanoma = system: SK-MEL-2 melanoma
OVCAR-8 ovarian = system: OVCAR-8 ovarian
SR leukemia = system: SR leukemia
NCI-H23 lung = system: NCI-H23 lung
MDA-N = system: MDA-N
M14 melanoma = system: M14 melanoma
HCC-2998 colon = system: HCC-2998 colon
SK-OV-3 ovarian = system: SK-OV-3 ovarian
KM12 colon = system: KM12 colon
A549 NSCLC = system: A549 NSCLC
RXF 393 renal = system: RXF 393 renal

SMILES | TGI (SK-MEL-2 melanoma) [µM] | TGI (OVCAR-8 ovarian) [µM] | TGI (SR leukemia) [µM] | TGI (NCI-H23 lung) [µM] | TGI (MDA-N) [µM] | TGI (M14 melanoma) [µM] | TGI (HCC-2998 colon) [µM] | TGI (SK-OV-3 ovarian) [µM] | TGI (KM12 colon) [µM] | TGI (A549 NSCLC) [µM] | TGI (RXF 393 renal) [µM]
O=[N+]([O-])c1ccc(C2=NOC(c3ccccc3F)N2C23CC4CC(CC(C4)C2)C3)cc1 (stereo not given) | > 100 | > 100 | > 100 | > 100 | > 100 | > 100 | > 100 | > 100 | > 100 | > 100 | –
COCC1OC(OC2C3=C(C(C)C)CCC3(C)/C=C3\C(CCC3(O)COC)C(C)C2O)C(O)C2OC3OC12OC3(C)C1CO1 (stereo not given) | > 100 | > 100 | 75.7 | > 100 | > 100 | > 100 | > 100 | > 100 | > 100 | > 100 | > 100
Cc1cn(C2CCC(/C=N\O)O2)c(=O)[nH]c1=O (stereo not given) | > 100 | > 100 | > 100 | > 100 | > 100 | > 100 | > 100 | – | > 100 | > 100 | > 100
O=c1cc(N2CCOCC2)[nH]c(=O)n1-c1cccc(C(F)(F)F)c1 | > 100 | > 100 | > 100 | > 100 | > 100 | > 100 | > 100 | > 100 | > 100 | > 100 | –
CC(C)(C)c1nc2c(o1)C(=O)c1ccccc1C2=O | 1.83 | 3.37 | 45 | 1.78 | 0.367 | 1.97 | 7.39 | 10.2 | 6.76 | 8.22 | 5.54
CCOC(=O)CCC(NC(=O)c1ccc(Oc2nc3ccc(C(F)(F)F)cc3nc2-c2ccccc2)cc1)C(=O)OCC (stereo not given) | > 65.8 | > 57.7 | > 100 | > 79.2 | > 100 | > 100 | > 100 | 37.9 | > 100 | > 100 | 55.4
O=C1Nc2cccc(Cl)c2/C1=C\c1c(Cl)nc2sccn12 | 30.2 | > 100 | > 100 | 66.3 | > 100 | > 100 | > 100 | 31 | > 100 | > 100 | 29.6
CCOc1ccc(/C(O)=C/c2nc3ccccc3nc2/C=C(\O)c2ccc(OCC)cc2)cc1 | > 100 | – | 26.6 | > 100 | > 100 | > 100 | > 100 | > 100 | – | > 100 | > 100
O=P(Oc1ccccc1)(Oc1ccccc1)Oc1c[nH]c2ccccc12 | 20.2 | 47.5 | > 100 | 25.8 | 24.3 | 26.8 | 17.9 | 18.3 | > 100 | 31 | 29.2
C[C@H](Nc1c(O)c2c(c(O)c1Cl)C(=O)C=CC2=O)C(=O)Nc1ccc([N+](=O)[O-])cc1 | 9.1 | 5.54 | > 10 | 4.45 | 6.67 | 2.53 | 8.05 | > 10 | 3.66 | 3.64 | 3.04
C[C@]12CC[C@@H]3c4cc(OCC(F)(F)F)c(O)cc4C(=O)C[C@H]3[C@@H]1CC[C@@H]2O | > 26.1 | > 84.7 | > 100 | > 100 | 5.69 | > 41.7 | 38.7 | 47.5 | > 64.4 | > 100 | 58.5
COc1cc(CCCOC(=O)/C=C/c2ccc(O)c(O)c2)cc(O)c1O | > 100 | > 100 | > 100 | > 100 | 53.7 | > 100 | > 100 | > 100 | > 100 | > 100 | > 100
CC(C)(C)N(Cc1ccc2c(c1)OCO2)C(=O)/C=C\S(=O)c1ccccc1 (stereo not given) | 9.11 | 6.44 | > 27.7 | 8.79 | 12.7 | 8.2 | 13.8 | 9.38 | 14 | 18.4 | 8.22
O=[N+]([O-])c1cccc2nc3ccccc3c(NCCc3cccc[n+]3[O-])c12 | 0.528 | 0.302 | 0.161 | 0.0661 | 0.0464 | < 0.0172 | < 0.01 | 0.979 | 0.552 | < 0.0476 | 0.11
CN(NC(=O)CCCl)C1=NCCN1 | > 100 | > 100 | > 100 | > 100 | > 100 | > 100 | > 100 | > 100 | > 100 | > 100 | > 100
